Measured values taken from paper PMC11079024, “Identification of a family of species-selective complex I inhibitors as potential anthelmintics” (Nature Communications, 2024).
“And” between values parts separate entries of the source, which are not always exact repeats. Equal entries are not always repeated. Where two headings read alike, the source gives them in different places.

Assays:
[1] = system: L1 wild-type C. elegans; test: microbe, parasite or virus in culture; conditions: Caenorhabditis elegans
[2] = system: L1 wild-type C. elegans; conditions: […]; for KCN survival assay value relative to DMSO control, Mean: mean of replicates
[3] = molecular target: C. elegans (N2) complex I (NADH:ubiquinone oxidoreductase) (Caenorhabditis elegans, UniProt P24887+Q93873+Q94360); test: biochemical; format: biochemical; conditions: for Log IC50 C. elegans complex I: log10 of IC50 in µM
Chain of C. elegans (N2) complex I (NADH:ubiquinone oxidoreductase) (Q94360 17-199): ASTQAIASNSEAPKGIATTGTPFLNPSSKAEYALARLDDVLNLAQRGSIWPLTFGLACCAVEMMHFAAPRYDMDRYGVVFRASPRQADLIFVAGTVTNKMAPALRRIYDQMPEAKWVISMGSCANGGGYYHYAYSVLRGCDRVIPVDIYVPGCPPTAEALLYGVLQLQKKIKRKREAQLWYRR
Chain of C. elegans (N2) complex I (NADH:ubiquinone oxidoreductase) (P24887 whole entry): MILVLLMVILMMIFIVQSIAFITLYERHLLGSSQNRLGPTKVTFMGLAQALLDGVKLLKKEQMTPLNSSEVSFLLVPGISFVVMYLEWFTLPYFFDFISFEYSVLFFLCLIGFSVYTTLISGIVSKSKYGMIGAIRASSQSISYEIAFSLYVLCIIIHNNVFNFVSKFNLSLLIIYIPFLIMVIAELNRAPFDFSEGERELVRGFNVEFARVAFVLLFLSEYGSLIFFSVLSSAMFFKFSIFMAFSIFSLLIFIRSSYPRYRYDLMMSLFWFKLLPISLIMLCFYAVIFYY
Chain of C. elegans (N2) complex I (NADH:ubiquinone oxidoreductase) (Q93873 31-482): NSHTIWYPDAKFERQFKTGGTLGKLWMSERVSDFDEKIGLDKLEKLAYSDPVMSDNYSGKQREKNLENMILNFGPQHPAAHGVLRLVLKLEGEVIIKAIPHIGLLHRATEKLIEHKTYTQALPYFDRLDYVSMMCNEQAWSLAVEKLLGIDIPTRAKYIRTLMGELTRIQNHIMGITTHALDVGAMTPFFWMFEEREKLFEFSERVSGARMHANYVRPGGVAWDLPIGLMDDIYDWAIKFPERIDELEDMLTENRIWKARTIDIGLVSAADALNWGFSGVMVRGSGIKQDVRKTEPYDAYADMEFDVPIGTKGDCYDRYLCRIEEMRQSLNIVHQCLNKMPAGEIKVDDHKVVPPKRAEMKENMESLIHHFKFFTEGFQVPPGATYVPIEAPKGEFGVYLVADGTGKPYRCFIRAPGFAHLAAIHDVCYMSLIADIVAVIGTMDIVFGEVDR
Outline: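 Mitochondria from liquid-cultured adults were freeze-thawed thrice before the 15-min DCIP-coupled NADH oxidation read.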

[4] = in vitro complex I dose response on C. elegans mitochondria, average of at least two biological replicates, fit in R (DRC), read-out: IC50 C. elegans complex I
[5] = wild-type C. elegans mitochondria, estimated from fitted dose-response curves, read-out: C. elegans Complex I IC50

Cc1nc2ccccc2n1Cc1ccc(Cl)cc1 [STK697993]
LC50 ([1]; read-out: C. elegans KCN Survival Assay LC50): 8.18 µM
Screen "Hit" ([2]; 50 μM compound, hit = relative motility below 0.25 3 hours after removal of KCN): Y (hits were identified as compounds that reduced relative motility below 0.25 (75% reduction))
Relative Motility ([2]; 50 μM compound, worm motility 3 hours after removal of KCN, relative to DMSO controls, single biological replicate): 0.000
KCN survival assay value relative to DMSO control, Mean ([2]; dose 3.1 µM): 1.037
KCN survival assay value relative to DMSO control, Mean ([2]; dose 6.3 µM): 1.001
KCN survival assay value relative to DMSO control, Mean ([2]; dose 12.5 µM): 0.717
KCN survival assay value relative to DMSO control, Mean ([2]; dose 25 µM): 0.059
KCN survival assay value relative to DMSO control, Mean ([2]; dose 50 µM): 0.046
remaining activity at 0.0001 µM ([3]; C. elegans mitochondria, 0.0001 µM, Mean, read-out: in vitro complex I activity relative to solvent control): 93.5%
remaining activity at 0.0001 µM ([3]; C. elegans mitochondria, 0.0001 µM, single replicate, read-out: in vitro complex I activity relative to solvent control): 90.1%
remaining activity at 0.0005 µM ([3]; C. elegans mitochondria, 0.0005 µM, Mean, read-out: in vitro complex I activity relative to solvent control): 93.4%
remaining activity at 0.0005 µM ([3]; C. elegans mitochondria, 0.0005 µM, single replicate, read-out: in vitro complex I activity relative to solvent control): 89.1%
remaining activity at 0.001 µM ([3]; C. elegans mitochondria, 0.001 µM, Mean, read-out: in vitro complex I activity relative to solvent control): 92.2%
remaining activity at 0.0025 µM ([3]; C. elegans mitochondria, 0.0025 µM, Mean, read-out: in vitro complex I activity relative to solvent control): 89.9%
remaining activity at 0.005 µM ([3]; C. elegans mitochondria, 0.005 µM, Mean, read-out: in vitro complex I activity relative to solvent control): 93.8%
remaining activity at 0.013 µM ([3]; C. elegans mitochondria, 0.013 µM, Mean, read-out: in vitro complex I activity relative to solvent control): 89.4%
remaining activity at 0.025 µM ([3]; C. elegans mitochondria, 0.025 µM, Mean, read-out: in vitro complex I activity relative to solvent control): 79.6%
remaining activity at 0.025 µM ([3]; C. elegans mitochondria, 0.025 µM, single replicate, read-out: in vitro complex I activity relative to solvent control): 81.1%
remaining activity at 0.063 µM ([3]; C. elegans mitochondria, 0.063 µM, Mean, read-out: in vitro complex I activity relative to solvent control): 59.3%
remaining activity at 0.063 µM ([3]; C. elegans mitochondria, 0.063 µM, single replicate, read-out: in vitro complex I activity relative to solvent control): 58.9%
remaining activity at 0.125 µM ([3]; C. elegans mitochondria, 0.125 µM, Mean, read-out: in vitro complex I activity relative to solvent control): 46.1%
remaining activity at 0.125 µM ([3]; C. elegans mitochondria, 0.125 µM, single replicate, read-out: in vitro complex I activity relative to solvent control): 47%
remaining activity at 0.313 µM ([3]; C. elegans mitochondria, 0.313 µM, Mean, read-out: in vitro complex I activity relative to solvent control): 24.1%
remaining activity at 0.313 µM ([3]; C. elegans mitochondria, 0.313 µM, single replicate, read-out: in vitro complex I activity relative to solvent control): 23.6%
remaining activity at 0.625 µM ([3]; C. elegans mitochondria, 0.625 µM, Mean, read-out: in vitro complex I activity relative to solvent control): 15.5%
remaining activity at 0.625 µM ([3]; C. elegans mitochondria, 0.625 µM, single replicate, read-out: in vitro complex I activity relative to solvent control): 16.8%
remaining activity at 1.5 µM ([3]; C. elegans mitochondria, 1.5 µM, Mean, read-out: in vitro complex I activity relative to solvent control): 6.88%
remaining activity at 3 µM ([3]; C. elegans mitochondria, 3 µM, Mean, read-out: in vitro complex I activity relative to solvent control): 4.54%
remaining activity at 15 µM ([3]; C. elegans mitochondria, 15 µM, Mean, read-out: in vitro complex I activity relative to solvent control): 3.15%
remaining activity at 37.5 µM ([3]; C. elegans mitochondria, 37.5 µM, Mean, read-out: in vitro complex I activity relative to solvent control): 1.66%
remaining activity at 75 µM ([3]; C. elegans mitochondria, 75 µM, Mean, read-out: in vitro complex I activity relative to solvent control): 1.29%
remaining activity at 0.0001 µM ([3]; dose 0.0001 µM, wild-type C. elegans, mean of replicates, read-out: in vitro complex I activity relative to solvent control, Mean): 93.5%
in vitro complex I activity relative to solvent control, individual replicate ([3]; dose 0.0001 µM, wild-type C. elegans, single replicate): 99.582% and 83.147% and 101.146%
remaining activity at 0.0001 µM ([3]; dose 0.0001 µM, wild-type C. elegans, single replicate, read-out: in vitro complex I activity relative to solvent control, individual replicate): 90.1%
remaining activity at 0.0005 µM ([3]; dose 0.0005 µM, wild-type C. elegans, mean of replicates, read-out: in vitro complex I activity relative to solvent control, Mean): 93.4%
in vitro complex I activity relative to solvent control, individual replicate ([3]; dose 0.0005 µM, wild-type C. elegans, single replicate): 96.982% and 84.926% and 102.628%
remaining activity at 0.0005 µM ([3]; dose 0.0005 µM, wild-type C. elegans, single replicate, read-out: in vitro complex I activity relative to solvent control, individual replicate): 89.1%
remaining activity at 0.001 µM ([3]; dose 0.001 µM, wild-type C. elegans, mean of replicates, read-out: in vitro complex I activity relative to solvent control, Mean): 92.2%
in vitro complex I activity relative to solvent control, individual replicate ([3]; dose 0.001 µM, wild-type C. elegans, single replicate): 93.635% and 85.360% and 84.052% and 105.930%
remaining activity at 0.0025 µM ([3]; dose 0.0025 µM, wild-type C. elegans, mean of replicates, read-out: in vitro complex I activity relative to solvent control, Mean): 89.9%
in vitro complex I activity relative to solvent control, individual replicate ([3]; dose 0.0025 µM, wild-type C. elegans, single replicate): 94.908% and 85.958% and 78.987% and 99.629%
remaining activity at 0.005 µM ([3]; dose 0.005 µM, wild-type C. elegans, mean of replicates, read-out: in vitro complex I activity relative to solvent control, Mean): 93.8%
in vitro complex I activity relative to solvent control, individual replicate ([3]; dose 0.005 µM, wild-type C. elegans, single replicate): 110.821% and 90.887% and 82.153% and 91.307%
remaining activity at 0.013 µM ([3]; dose 0.013 µM, wild-type C. elegans, mean of replicates, read-out: in vitro complex I activity relative to solvent control, Mean): 89.4%
in vitro complex I activity relative to solvent control, individual replicate ([3]; dose 0.013 µM, wild-type C. elegans, single replicate): 104.424% and 80.938% and 77.600% and 94.576%
remaining activity at 0.025 µM ([3]; dose 0.025 µM, wild-type C. elegans, mean of replicates, read-out: in vitro complex I activity relative to solvent control, Mean): 79.6%
in vitro complex I activity relative to solvent control, individual replicate ([3]; dose 0.025 µM, wild-type C. elegans, single replicate): 79.265% and 72.113% and 85.782%
remaining activity at 0.025 µM ([3]; dose 0.025 µM, wild-type C. elegans, single replicate, read-out: in vitro complex I activity relative to solvent control, individual replicate): 81.1%
remaining activity at 0.063 µM ([3]; dose 0.063 µM, wild-type C. elegans, mean of replicates, read-out: in vitro complex I activity relative to solvent control, Mean): 59.3%
in vitro complex I activity relative to solvent control, individual replicate ([3]; dose 0.063 µM, wild-type C. elegans, single replicate): 58.500% and 52.939% and 67.015%
remaining activity at 0.063 µM ([3]; dose 0.063 µM, wild-type C. elegans, single replicate, read-out: in vitro complex I activity relative to solvent control, individual replicate): 58.9%
remaining activity at 0.125 µM ([3]; dose 0.125 µM, wild-type C. elegans, mean of replicates, read-out: in vitro complex I activity relative to solvent control, Mean): 46.1%
in vitro complex I activity relative to solvent control, individual replicate ([3]; dose 0.125 µM, wild-type C. elegans, single replicate): 44.996% and 42.086% and 50.202%
remaining activity at 0.125 µM ([3]; dose 0.125 µM, wild-type C. elegans, single replicate, read-out: in vitro complex I activity relative to solvent control, individual replicate): 47%
remaining activity at 0.313 µM ([3]; dose 0.313 µM, wild-type C. elegans, mean of replicates, read-out: in vitro complex I activity relative to solvent control, Mean): 24.1%
in vitro complex I activity relative to solvent control, individual replicate ([3]; dose 0.313 µM, wild-type C. elegans, single replicate): 25.635% and 20.651% and 26.550%
remaining activity at 0.313 µM ([3]; dose 0.313 µM, wild-type C. elegans, single replicate, read-out: in vitro complex I activity relative to solvent control, individual replicate): 23.6%
remaining activity at 0.625 µM ([3]; dose 0.625 µM, wild-type C. elegans, mean of replicates, read-out: in vitro complex I activity relative to solvent control, Mean): 15.5%
in vitro complex I activity relative to solvent control, individual replicate ([3]; dose 0.625 µM, wild-type C. elegans, single replicate): 15.276% and 17.385% and 12.484%
remaining activity at 0.625 µM ([3]; dose 0.625 µM, wild-type C. elegans, single replicate, read-out: in vitro complex I activity relative to solvent control, individual replicate): 16.8%
remaining activity at 1.5 µM ([3]; dose 1.5 µM, wild-type C. elegans, mean of replicates, read-out: in vitro complex I activity relative to solvent control, Mean): 6.88%
in vitro complex I activity relative to solvent control, individual replicate ([3]; dose 1.5 µM, wild-type C. elegans, single replicate): 4.958% and 1.160% and 6.055% and 15.327%
remaining activity at 3 µM ([3]; dose 3 µM, wild-type C. elegans, mean of replicates, read-out: in vitro complex I activity relative to solvent control, Mean): 4.54%
in vitro complex I activity relative to solvent control, individual replicate ([3]; dose 3 µM, wild-type C. elegans, single replicate): 0.589% and 7.541% and 4.494% and 5.523%
remaining activity at 15 µM ([3]; dose 15 µM, wild-type C. elegans, mean of replicates, read-out: in vitro complex I activity relative to solvent control, Mean): 3.15%
in vitro complex I activity relative to solvent control, individual replicate ([3]; dose 15 µM, wild-type C. elegans, single replicate): 6.941% and 0.000% and 2.528% and 3.137%
remaining activity at 37.5 µM ([3]; dose 37.5 µM, wild-type C. elegans, mean of replicates, read-out: in vitro complex I activity relative to solvent control, Mean): 1.66%
in vitro complex I activity relative to solvent control, individual replicate ([3]; dose 37.5 µM, wild-type C. elegans, single replicate): 3.595% and 0.000% and 3.039%
remaining activity at 75 µM ([3]; dose 75 µM, wild-type C. elegans, mean of replicates, read-out: in vitro complex I activity relative to solvent control, Mean): 1.29%
in vitro complex I activity relative to solvent control, individual replicate ([3]; dose 75 µM, wild-type C. elegans, single replicate): 0.000% and 3.223% and 1.928%
IC50 [3, 4]: 0.11 µM
Log IC50 C. elegans complex I ([3]; C. elegans mitochondria): -0.96 µM
IC50 ([3]; wild-type (N2) mitochondria, read-out: C. elegans Complex I IC50): 0.11 µM
IC50 ([3]; wild-type (N2) mitochondria, read-out: C. elegans complex I IC50): 0.112 µM
IC50 [3, 5]: 0.11 µM

C=CCn1c(-c2ccc(N(C)C)cc2)nc2ccccc21 [Compound 6873298]
LC50 ([1]; read-out: C. elegans KCN Survival Assay LC50, estimated from fitted dose-response curves, mean of at least two biological replicates): 5.19 µM
Screen "Hit" ([2]; 50 μM, KCN survival assay, hit = relative motility below 0.25): Y (hits were identified as compounds that reduced relative motility below 0.25 (75% reduction))
IC50 [3, 4]: 13.2 µM
Log IC50 C. elegans complex I ([3]; C. elegans mitochondria): 1.12 µM
IC50 [3, 5]: 13.2 µM
